Values joined by “and” are separate entries in the source; they are usually repeats but may differ in a detail not shown here. Identical values can stand only once. Inconclusive results and toxic doses are left out. Residues, ends and D or L forms follow the SMILES beside them. *: point of attachment. Octanoyl = CCCCCCCC(=O)*
System: CD2F1 mice, L1210 leukemia ip, survival T/C
Assay: NCI In Vivo Anticancer Drug Screen. Data for tumor model L1210 Leukemia (intraperitoneal) in CD2F1 (CDF1) mice
Settings: higher = longer survival
Experimental: The antitumor activity of compounds was measured in mice bearing transplantable tumors. Survival or tumor size were measured and the results are expressed as the measurement made in the treated group (T) divided by the measurement made in the vehicle treated control group (C). The tumor model used in this assay is L1210 Leukemia (intraperitoneal) in CD2F1 (CDF1) mice

[1] = endpoint: mean survival time, dose: 6.25 mg/kg/injection, schedule: Q04DX003 (ip), vehicle: saline with Tween-80
[2] = endpoint: mean survival time, dose: 12.5 mg/kg/injection, schedule: Q04DX003 (ip), vehicle: saline with Tween-80
[3] = endpoint: mean survival time, dose: 12.5 mg/kg/injection, schedule: Q01DX009 (ip), vehicle: saline with Tween-80
[4] = endpoint: mean survival time, dose: 100.0 mg/kg/injection, schedule: Q01DX009 (ip), vehicle: saline with Tween-80
[5] = endpoint: mean survival time, dose: 25.0 mg/kg/injection, schedule: Q01DX009 (ip), vehicle: saline
[6] = endpoint: mean survival time, dose: 50.0 mg/kg/injection, schedule: Q01DX009 (ip), vehicle: saline
[7] = endpoint: mean survival time, dose: 6.25 mg/kg/injection, schedule: Q01DX001 (ip), vehicle: Klucel (hydroxypropylcellulose) (HPC)
[8] = endpoint: mean survival time, dose: 200.0 mg/kg/injection, schedule: Q01DX009 (ip), vehicle: saline with Tween-80
[9] = endpoint: mean survival time, dose: 400.0 mg/kg/injection, schedule: Q01DX009 (ip), vehicle: saline with Tween-80
[10] = endpoint: mean survival time, dose: 100.0 mg/kg/injection, schedule: Q04DX003 (ip), vehicle: saline with Tween-80
[11] = endpoint: mean survival time, dose: 200.0 mg/kg/injection, schedule: Q04DX003 (ip), vehicle: saline with Tween-80
[12] = endpoint: mean survival time, dose: 400.0 mg/kg/injection, schedule: Q04DX003 (ip), vehicle: saline with Tween-80
[13] = endpoint: mean survival time, dose: 12.5 mg/kg/injection, schedule: Q01DX009 (ip), vehicle: water

SMILES: CC1CC(C)(C)CC2(C1)OCC(CCl)O2 (stereo not drawn)
- T/C (endpoint: mean survival time, dose: 100.0 mg/kg/injection, schedule: Q01DX009 (ip), vehicle: saline sonified): 95 % of control
- T/C (endpoint: mean survival time, dose: 200.0 mg/kg/injection, schedule: Q01DX009 (ip), vehicle: saline sonified): 87 % of control
- T/C (endpoint: mean survival time, dose: 400.0 mg/kg/injection, schedule: Q01DX009 (ip), vehicle: saline sonified): 106 % of control

SMILES: NC1CC[N-]CC1.NC1CC[N-]CC1.NC1CC[N-]CC1.NC1CC[N-]CC1.[Cl][Rh][Cl]
- T/C [1]: 98 % of control
- T/C [2]: 101 % of control
- T/C (endpoint: mean survival time, dose: 25.0 mg/kg/injection, schedule: Q04DX003 (ip), vehicle: saline with Tween-80): 95 % of control

SMILES: COc1cc2c(cc1OC)-c1c(cnn1C1OC(COC(C)=O)C(OC(C)=O)C(OC(C)=O)C1OC(C)=O)CC2 (stereo not drawn)
- T/C (endpoint: mean survival time, dose: 12.5 mg/kg/injection, schedule: Q01DX005 (ip), vehicle: other): 103 % of control
- T/C (endpoint: mean survival time, dose: 25.0 mg/kg/injection, schedule: Q01DX005 (ip), vehicle: other): 93 % of control
- T/C (endpoint: mean survival time, dose: 50.0 mg/kg/injection, schedule: Q01DX005 (ip), vehicle: other): 90 % of control
- T/C (endpoint: mean survival time, dose: 100.0 mg/kg/injection, schedule: Q01DX005 (ip), vehicle: other): 87 % of control

SMILES: Cc1c(C=[N+]2CCCCC2)c2ccccc2n1C
- T/C [3]: 95 % of control
- T/C (endpoint: mean survival time, dose: 25.0 mg/kg/injection, schedule: Q01DX009 (ip), vehicle: saline with Tween-80): 95 % of control
- T/C (endpoint: mean survival time, dose: 50.0 mg/kg/injection, schedule: Q01DX009 (ip), vehicle: saline with Tween-80): 93 % of control
- T/C [4]: 87 % of control
- T/C (endpoint: mean survival time, dose: 100.0 mg/kg/injection, schedule: Q04DX002 (ip), vehicle: saline with Tween-80): 100 % of control
- T/C (endpoint: mean survival time, dose: 400.0 mg/kg/injection, schedule: Q04DX002 (ip), vehicle: saline with Tween-80): 112 % of control

SMILES: NC(=O)C1(N2CCCCC2)CCN(CCCC(=O)c2ccc(F)cc2)CC1
- T/C [5]: 101 % of control
- T/C [6]: 101 % of control

SMILES: CCCCCCCC(=O)NCC(=O)NCC(=O)O (Octanoyl-Gly-Gly-OH)
- T/C [7]: 97 % of control
- T/C (endpoint: mean survival time, dose: 12.5 mg/kg/injection, schedule: Q01DX001 (ip), vehicle: Klucel (hydroxypropylcellulose) (HPC)): 95 % of control
- T/C (endpoint: mean survival time, dose: 25.0 mg/kg/injection, schedule: Q01DX001 (ip), vehicle: Klucel (hydroxypropylcellulose) (HPC)): 100 % of control
- T/C (endpoint: mean survival time, dose: 50.0 mg/kg/injection, schedule: Q01DX001 (ip), vehicle: Klucel (hydroxypropylcellulose) (HPC)): 93 % of control

SMILES: CSC(=NC#N)SC
- T/C (endpoint: mean survival time, dose: 3.13 mg/kg/injection, schedule: Q01DX001 (ip), vehicle: Klucel (hydroxypropylcellulose) (HPC)): 101 % of control
- T/C [7]: 104 % of control

SMILES: O=C(CC(c1ccc(Cl)cc1)P(=O)(c1ccccc1)c1ccccc1)c1ccccc1 (stereo not drawn)
- T/C [4]: 90 % of control
- T/C [8]: 98 % of control
- T/C [9]: 97 % of control

SMILES: Cc1cc(N(CCOS(C)(=O)=O)CCOS(C)(=O)=O)ccc1C=Nc1ccc(-c2csc(Cc3ccccc3)n2)cc1
- T/C (endpoint: mean survival time, dose: 6.25 mg/kg/injection, schedule: Q01DX009 (ip), vehicle: saline with Tween-80): 102 % of control
- T/C [3]: 105 % of control

SMILES: Cc1cccc(N2CCN(CCO)CC2)c1
- T/C (endpoint: mean survival time, dose: 12.5 mg/kg/injection, schedule: Q01DX009 (ip), vehicle: saline): 109 % of control
- T/C [5]: 102 % of control
- T/C [6]: 100 % of control

SMILES: CCCCCCCCCCCCCCCCSSCCCCCCCCCCCCCCCC
- T/C [10]: 88 % of control
- T/C [11]: 88 % of control
- T/C [12]: 92 % of control

SMILES: CC([NH-])CC[NH-].O=C(O)C(=O)O.[Pt+2] (stereo not drawn)
- T/C (endpoint: mean survival time, dose: 3.12 mg/kg/injection, schedule: Q04DX003 (ip), vehicle: saline with Tween-80): 152 % of control
- T/C [1]: 235 % of control
- T/C [2]: 265 % of control

SMILES: O=c1[nH]cnc2n[nH]c(Br)c12
- T/C (endpoint: median survival time, dose: 50.0 mg/kg/injection, schedule: Q01DX005 (ip), vehicle: saline with Tween-80): 107 % of control
- T/C (endpoint: median survival time, dose: 100.0 mg/kg/injection, schedule: Q01DX005 (ip), vehicle: saline with Tween-80): 111 % of control
- T/C (endpoint: median survival time, dose: 200.0 mg/kg/injection, schedule: Q01DX005 (ip), vehicle: saline with Tween-80): 119 % of control

SMILES: CC1(Br)C(C)(Br)C(C)(Br)C(C)(Br)C(C)(Br)C1(C)Br (stereo not drawn)
- T/C (endpoint: mean survival time, dose: 100.0 mg/kg/injection, schedule: Q01DX001 (ip), vehicle: saline with Tween-80): 96 % of control
- T/C (endpoint: mean survival time, dose: 200.0 mg/kg/injection, schedule: Q01DX001 (ip), vehicle: saline with Tween-80): 101 % of control
- T/C (endpoint: mean survival time, dose: 400.0 mg/kg/injection, schedule: Q01DX001 (ip), vehicle: saline with Tween-80): 101 % of control

SMILES: O=S(c1ccccc1)C1OC12CCCCC2 (stereo not drawn)
- T/C [10]: 97 % of control
- T/C [11]: 98 % of control
- T/C [12]: 97 % of control

SMILES: COc1cc2c(c(OC)c1OC)-c1ccc(SC)c(=O)cc1[C@@H](NC(=O)NCCCl)CC2
- T/C (endpoint: mean survival time, dose: 1.56 mg/kg/injection, schedule: Q01DX005 (ip), vehicle: water): 103 % of control
- T/C (endpoint: mean survival time, dose: 3.13 mg/kg/injection, schedule: Q01DX005 (ip), vehicle: water): 103 % of control
- T/C (endpoint: mean survival time, dose: 6.25 mg/kg/injection, schedule: Q01DX005 (ip), vehicle: water): 122 % of control
- T/C (endpoint: mean survival time, dose: 6.25 mg/kg/injection, schedule: Q01DX009 (ip), vehicle: water): 123 % of control
- T/C (endpoint: mean survival time, dose: 12.5 mg/kg/injection, schedule: Q01DX005 (ip), vehicle: water): 117 % of control
- T/C [13]: 123 % of control

SMILES: COC(=O)C(NC=O)C(=O)OC
- T/C (endpoint: mean survival time, dose: 100.0 mg/kg/injection, schedule: Q01DX009 (ip), vehicle: saline): 105 % of control
- T/C (endpoint: mean survival time, dose: 100.0 mg/kg/injection, schedule: Q04DX003 (ip), vehicle: saline): 93 % of control
- T/C (endpoint: mean survival time, dose: 200.0 mg/kg/injection, schedule: Q01DX009 (ip), vehicle: saline): 107 % of control
- T/C (endpoint: mean survival time, dose: 200.0 mg/kg/injection, schedule: Q04DX003 (ip), vehicle: saline): 101 % of control
- T/C (endpoint: mean survival time, dose: 400.0 mg/kg/injection, schedule: Q01DX009 (ip), vehicle: saline): 117 % of control
- T/C (endpoint: mean survival time, dose: 400.0 mg/kg/injection, schedule: Q04DX003 (ip), vehicle: saline): 95 % of control

SMILES: ClC1C2CCC(C2)C1(Cl)Cl (stereo not drawn)
- T/C (endpoint: mean survival time, dose: 0.3 mg/kg/injection, schedule: Q01DX001 (ip), vehicle: saline with Tween-80): 100 % of control
- T/C (endpoint: mean survival time, dose: 0.6 mg/kg/injection, schedule: Q01DX001 (ip), vehicle: saline with Tween-80): 103 % of control
- T/C (endpoint: mean survival time, dose: 1.2 mg/kg/injection, schedule: Q01DX001 (ip), vehicle: saline with Tween-80): 102 % of control

SMILES: FC(F)(F)c1ccc2c(c1)N(CCCN(CCCl)CCCl)c1ccccc1S2
- T/C (endpoint: mean survival time, dose: 18.0 mg/kg/injection, schedule: Q01DX001 (ip), vehicle: saline): 100 % of control
- T/C (endpoint: mean survival time, dose: 28.0 mg/kg/injection, schedule: Q01DX001 (ip), vehicle: saline): 111 % of control

SMILES: CCOC(=O)C1C(=O)N(C)C(=O)N1C (stereo not drawn)
- T/C (endpoint: mean survival time, dose: 5.56 mg/kg/injection, schedule: Q01DX009 (ip), vehicle: water): 89 % of control
- T/C (endpoint: mean survival time, dose: 8.33 mg/kg/injection, schedule: Q01DX009 (ip), vehicle: water): 90 % of control
- T/C [13]: 121 % of control and 92 % of control
- T/C (endpoint: mean survival time, dose: 25.0 mg/kg/injection, schedule: Q01DX009 (ip), vehicle: water): 95 % of control
- T/C (endpoint: mean survival time, dose: 50.0 mg/kg/injection, schedule: Q01DX009 (ip), vehicle: water): 93 % of control
- T/C (endpoint: mean survival time, dose: 100.0 mg/kg/injection, schedule: Q01DX009 (ip), vehicle: water): 95 % of control
- T/C (endpoint: mean survival time, dose: 200.0 mg/kg/injection, schedule: Q01DX009 (ip), vehicle: water): 98 % of control

SMILES: O/N=C(/CN1CCOCC1)c1ccccc1
- T/C [4]: 97 % of control
- T/C [10]: 102 % of control
- T/C [8]: 94 % of control
- T/C [11]: 96 % of control
- T/C [9]: 96 % of control
- T/C [12]: 102 % of control

SMILES: CC1(O)C=CC(=O)C=C1
- T/C (endpoint: median survival time, dose: 6.25 mg/kg/injection, schedule: Q01DX009 (ip), vehicle: water): 91 % of control
- T/C (endpoint: median survival time, dose: 12.5 mg/kg/injection, schedule: Q01DX009 (ip), vehicle: water): 103 % of control
- T/C (endpoint: median survival time, dose: 25.0 mg/kg/injection, schedule: Q01DX009 (ip), vehicle: water): 122 % of control
- T/C (endpoint: median survival time, dose: 50.0 mg/kg/injection, schedule: Q01DX009 (ip), vehicle: water): 91 % of control

SMILES: COc1cc2c3cc1Oc1c(OC)c(OC)cc4c1[C@@H](Cc1ccc(O)c(c1)Oc1ccc(cc1)C[C@@H]3N(C)CC2)N(C)CC4
- T/C (endpoint: mean survival time, dose: 75.0 mg/kg/injection, schedule: Q01DX001 (ip), vehicle: other): 96 % of control
- T/C (endpoint: mean survival time, dose: 150.0 mg/kg/injection, schedule: Q01DX001 (ip), vehicle: other): 100 % of control

Reference: PubChem BioAssay AID256 (DTP/NCI, 2004)
